In patent publication US9808456B2, “Piperazine thiazole derivatives useful in the treatment of tauopathies such as Alzheimer's disease” (REMYND NV, priority 2011, dated 2017):

Tests used:
[1] = Lipophilicity (logD) by Carrier mediated distribution system (CAMDIS); format: physicochemical
Procedure: Lipophilicity data were measured with the Carrier mediated distribution system (CAMDIS) as described in EP1705474A1.

[2] = Microsomal stability assay, rat liver microsomes (intrinsic clearance); format: in vitro ADME
Procedure: (§1) Microsomal Stability Testing—Assay Description
(§2) The microsomal stability assay measures the rate of disappearance of a test compound from an incubation containing human or animal liver microsomes and metabolic cofactors (typically NADPH). The assay is primarily used for ranking the relative CYP-mediated metabolism propensities of compounds within a chemical series and as a guide to selecting sufficiently stable compounds for pharmacokinetics and pharmacodynamics experiments. [In addition to CYPs, microsomally located enzymes which also make use of NADPH (such as […]) and those which require no cofactors (such as carboxylesterases) are active.]
(§3) Incubations are performed in 96-well deep-well plates with a final incubation volume of 600 μL. Incubations contain (finally) 1-20 μM test compound, 0.5 mg/mL liver microsomes (typically human, rat or mouse) and NADPH regenerating system. 50 μL aliquots are removed after 1, 3, 6, 9, 15, 25, 35 and 45 minutes and quenched in 150 μL acetonitrile containing internal standard. Samples are then cooled and centrifuged before analysis by LC-MS/MS.
(§4) Log peak area ratio (test compound peak area/internal standard peak area) is plotted against incubation time and a linear fit made to the data with emphasis upon the initial rate of compound disappearance. […]

M17_3TAU(P301L) cells = assay: Neuroblastoma tauopathy model: inhibition of TAU-induced cytotoxicity (LDH) after retinoic acid differentiation; format: cell-based; details: Homo sapiens, 168 h, inhibition of TAU-induced toxicity, 7 days retinoic acid, LDH readout
Source text: A TAU expression plasmid was constructed by sub-cloning the cDNA encoding for human TAU-P301L protein, wherein proline at position 301 is substituted by a leucine residue, into mammalian expression vector pcDNA3.1 resulting in the plasmid pcDNA3.1-TAUP301L. Plasmids pcDNA3.1 and pcDNA3.1-TAU P301L were transfected into human neuroblastoma cells (BE-M17; ATCC No. CRL2267™) using lipofectamine reagent and subsequently, independent clonal cell lines with the plasmids stably integrated into the genome were selected by antibiotic resistance selection (Geneticin (G418)), resulting in cell lines M17.pcDNA3 and M17_3TAUP301L. Expression of the TAUP301L gene in the M17_3TAUP301L cells was confirmed by Western blot analysis.
Differentiation of the cells with RA leads to phosphorylation and subsequent aggregation of TAU, inducing a tauopathy in these cells. Cytotoxicity of cells was measured by quantification of lactate dehydrogenase (LDH) levels. In dead cells LDH is leaked out of the cells into the medium due to a loss of plasma-membrane integrity.
Briefly, 3 days preceeding the experiment pre-cultures of M17.pcDNA3 and M17_3TAU(P301L) cells were prepared, starting from a stock culture, at a density of 50.000-100.000 cells/cm2 in detection medium (Optimem Reduced Serum without phenol red (Gibco, Cat. 31985-047) supplemented with 1% fetal calf serum (FCS), 1 mM sodium pyruvate, 1× non-essential amino acids (NEAR), 500 μg/ml G418 and 0.5× antibiotic/antimycotic (ABAM)). At the day of the experiment these precultures were diluted to ˜0, 1.106 cells/ml in detection medium without FCS and 60 μL of this suspension is dispensed per well into a 96-well microtiter plate. After 3 hours of incubation at 37° C./5% CO2 an equal volume of detection medium containing 2.5 μM RA was added and subsequently incubated for 7 days at 37° C./5% CO2. After 7 days, LDH activity was determined using the Promega Cytotox 96 Non-Radioactive cytotoxicity assay (Cat. G1780), according the manufacturer's instructions. Cytotoxicity is measured as the ratio of LDH increase in the supernatant divided by the LDH increase in the total cell suspension (sum of the LDH measured in cells and supernatant).
The M17_3TAU(P301L) cell line makes it possible to assess the ability of novel compounds to inhibit TAU-induced cytotoxicity. […] Compounds were tested for their ability to hamper TAU-induced toxicity at different concentrations, ranging from low non-effective concentrations to high potent concentrations. Afterwards, the dose-dependent inhibition curve was used to calculate their EC50 (Table III).

[3] = Microsomal stability assay, human liver microsomes (intrinsic clearance); format: in vitro ADME; details: read-out: CLint. (Hum)
Procedure: as §1, §2, §3, §4

Structure (SMILES) | logD [1] | microsomal CLint [2] | EC50 (M17_3TAU(P301L) cells) | microsomal CLint [3]
FC1(F)CCN(c2nsc(N3CCN(CCc4ccc(Cl)cc4)CC3)n2)CC1 [Example 2, 1-[2-(4-Chloro-phenyl)-ethyl]-4-[3-(4,4-difluoro-piperidin-1-yl)-[1,2,4]thiadiazol-5-yl]-piperazine] | 2.93 | 80 µL/min/mg | 53.6 nM | 17 µL/min/mg
Clc1ccc(CCN2CCN(c3nc(Cc4ccc(Cl)cc4)ns3)CC2)cc1 [reference compound] | – | 48 µL/min/mg | – | 43 µL/min/mg
